Measured values taken from US20230107216A1, “PANTETHEINE DERIVATIVES AND USES THEREOF” (Comet Therapeutics, Inc., priority 2018, published 2023).
Like-named read-outs stand apart in the source and are kept apart here.

Tests used:
HepG2 cells = experiment: Mitochondrial membrane potential (MITO-ID MP detection Kit); format: cell-based; settings: Homo sapiens, 168 h, 7 days; for activation at 10 µM: read-out: % increase in Mitochondrial Membrane Potential; for inhibition at 50 µM / inhibition at 10 µM: read-out: % decrease in Mitochondrial Membrane Potential
How it was run: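 Cells plated at 160000 cells/mL in DMEM with 10% FBS and 1% Pen-Strep, adhered overnight at 37° C., 5% CO2. Exposure to test compounds (50-10 μM) or 0.2% DMSO for 7 days without media change; membrane potential measured with MITO-ID MP detection kit per manufacturer.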

[1] = test system: Methylmalonic Acidemia (MMA) primary fibroblasts Tsi 5224; experiment: Mitochondrial respiration, XFe96 Extracellular Flux Analyzer (OCR/ECAR), MMA fibroblasts Tsi 5224; format: cell-based; settings: Homo sapiens, Fibroblast;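 on Increase in Maximal Respiratory Capacity AUC: relative to vehicle DMSO control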
How it was run: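 Primary fibroblasts (20000 cells/well) were held 24 h in supplemented DMEM before Seahorse OCR/ECAR profiling. Compounds at 10 to 50 μM or 0.1% DMSO were injected after baseline, then oligomycin 1 μg/ml, FCCP, and rotenone/antimycin A 0.5 μM. Values were normalized to Hoechst nuclear counts, baselined to pre-compound, and expressed relative to vehicle.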

[2] = MMA Tsi 5224, assay condition D (1 mM glucose, 10% FBS), read-out: Increase in Maximal Respiratory Capacity AUC
[3] = MMA Tsi 5224, assay condition D (1 mM glucose, 10% FBS), read-out: Increase in Spare Capacity AUC
[4] = MMA Tsi 5224, assay condition A (10 mM glucose, 2 mM L-glutamine, 1 mM pyruvate, 10% FBS), read-out: Increase in Maximal Respiratory Capacity AUC

SMILES | activation at 10 µM (HepG2 cells) [%] | inhibition at 50 µM (HepG2 cells) [%] | activation at 10 µM [1, 2] [%] | activation at 10 µM [1, 4] [%] | further results
CC(C)(COC(=O)CCC(=O)O)[C@@H](O)C(=O)NCCC(=O)NCCS [Compound 1310, (R)-4-(3-hydroxy-4-((3-((2-mercaptoethyl)amino)-3-oxopropyl)amino)-2,2-dimethyl-4-oxobutoxy)-4-oxobutanoic acid] | 20 | > 30 | – | – | –
CC(C)C(=O)CC(=O)SCCNC(=O)CCNC(=O)[C@H](O)C(C)(C)CO [Compound 1239, (R)—S-(2-(3-(2,4-dihydroxy-3,3-dimethylbutanamido)propanamido)ethyl) 4-methyl-3-oxopentanethioate] | – | – | ≥ 10 | – | –
C[C@@H](O)CC(=O)SCCNC(=O)CCNC(=O)[C@H](O)C(C)(C)CO [Compound 38, S-2-{3-[(R)-2,4-dihydroxy-3,3-dimethylbutyrylamino]propionylamino} ethyl (R)-3-hydroxybutanethioate] | – | > 30 | ≥ 10 | – | –
COC(=O)CC[C@H](N)C(=O)SCCNC(=O)CCNC(=O)[C@H](O)C(C)(C)CO [Compound 411] | 10 | > 20 | ≥ 10 | – | activation at 10 µM [1, 3]: ≥ 10%
CC(O)C(C(=O)SCCNC(=O)CCNC(=O)[C@H](O)C(C)(C)CO)C(C)O (stereo partly drawn) [Compound 1285, (2R)-2,4-dihydroxy-N-[2-[(2-[[3-hydroxy-2-(1-hydroxyethyl)butanoyl]sulfanyl]ethyl)carbamoyl]ethyl]-3,3-dimethylbutanamide] | – | > 30 | – | – | –
CC(C)(CO)[C@@H](OC(=O)CCC(=O)O)C(=O)NCCC(=O)NCCS [Compound 1311, (R)-4-((4-hydroxy-1-((3-((2-mercaptoethyl)amino)-3-oxopropyl)amino)-3,3-dimethyl-1-oxobutan-2-yl)oxy)-4-oxobutanoic acid] | > 10 | – | ≥ 10 | ≥ 10 | –
CC(C)(CO)[C@@H](O)C(=O)NCCC(=O)NCCSC(=O)CCC(=O)O [Compound 1, (R)-4-((2-(3-(2,4-dihydroxy-3,3-dimethylbutanamido)propanamido)ethyl)thio)-4-oxobutanoic acid] | – | – | – | ≥ 10 | activation at 10 µM ([1]; MMA Tsi 5224, assay condition B (1 mM glucose, 2 mM L-glutamine, 1 mM pyruvate, 10% FBS), read-out: Increase in Maximal Respiratory Capacity AUC): ≥ 10%
COC(=O)/C=C/C(=O)SCCNC(=O)CCNC(=O)[C@H](O)C(C)(C)COP(=O)(O)O [Compound 73, methyl (R,E)-4-((2-(3-(2-hydroxy-3,3-dimethyl-4-(phosphonooxy)butanamido)propanamido)ethyl)thio)-4-oxobut-2-enoate] | – | > 30 | ≥ 10 | – | –
CC(O)CC(O)CC(O)CC(=O)SCCNC(=O)CCNC(=O)[C@H](O)C(C)(C)CO (stereo partly shown) [Compound 401] | > 10 | – | – | – | –
COC(=O)C(C)C(=O)SCCNC(=O)CCNC(=O)[C@H](O)C(C)(C)CO (stereo partly shown) [Compound 405] | – | > 50 | – | – | –
CC(C)(CO)[C@@H](O)C(=O)NCCC(=O)NCCSC(CC(=O)OCC[N+](C)(C)C)C(=O)O (stereo partly drawn) [Compound 51, [2-([3-carboxy-3-[(2-[3-[(2R)-2,4-dihydroxy-3,3-dimethylbutanamido]propanamido]ethyl)sulfanyl]propanoyl]oxy)ethyl]trimethylazanium] | > 10 | – | – | – | –
CC(O)CC(O)CC(=O)SCCNC(=O)CCNC(=O)[C@H](O)C(C)(C)CO (stereo partly shown) [Compound 400] | > 20 | – | ≥ 10 | – | –
COC(=O)CCC(=O)SCCNC(=O)CCNC(=O)[C@H](O)C(C)(C)CO [Compound 4, Methyl (R)-4-((2-(3-(2,4-dihydroxy-3,3-dimethylbutanamido)propanamido)ethyl)thio)-4-oxobutanoate] | – | – | ≥ 10 | ≥ 10 | inhibition at 10 µM (HepG2 cells): > 30%; activation at 10 µM [1, 3]: ≥ 10%
C[C@@H](O)CC(=O)CC(=O)SCCNC(=O)CCNC(=O)[C@H](O)C(C)(C)CO [Compound 42, (2R)-2,4-dihydroxy-N-[2-[(2-[[(5R)-5-hydroxy-3-oxohexanoyl]sulfanyl]ethyl)carbamoyl]ethyl]-3,3-dimethylbutanamide] | – | – | – | ≥ 10 | –
CC(=O)SCCNC(=O)CCNC(=O)[C@H](O)C(C)(C)COC(=O)CCC(=O)O [Compound 1242, (R)-12-hydroxy-13,13-dimethyl-2,7,11,16-tetraoxo-15-oxa-3-thia-6,10-diazanonadecan-19-oic acid] | – | – | ≥ 10 | – | –
COC(=O)CC(C(C)=O)C(=O)SCCNC(=O)CCNC(=O)[C@H](O)C(C)(C)CO (stereo partly shown) [Compound 410] | – | – | ≥ 10 | – | –
C/C=C/C(=O)SCCNC(=O)CCNC(=O)[C@H](O)C(C)(C)COP(=O)(O)O [Compound 82, (R)—S-(2-(3-(2-hydroxy-3,3-dimethyl-4-(phosphonooxy)butanamido)propanamido)ethyl) (E)-but-2-enethioate] | 10 | > 20 | ≥ 10 | – | –
C[C@H](CC(=O)SCCNC(=O)CCNC(=O)[C@H](O)C(C)(C)CO)OC(=O)CCC(=O)O [Compound 1243, 4-{[(2R)-4-[(2-{3-[(2R)-2,4-dihydroxy-3,3-dimethylbutanamido]propanamido}ethyl)sulfanyl]-4-oxobutan-2-yl]oxy}-4-oxobutanoic acid] | – | – | – | – | activation at 10 µM ([1]; MMA Tsi 5224, assay condition A (10 mM glucose, 2 mM L-glutamine, 1 mM pyruvate, 10% FBS), read-out: Increase in Spare Capacity AUC): ≥ 10%
CC1(CC(=O)SCCNC(=O)CCNC(=O)[C@H](O)C(C)(C)CO)OCCO1 [Compound 1252, (R)—S-(2-(3-(2,4-dihydroxy-3,3-dimethylbutanamido)propanamido)ethyl)-2-(2-methyl-1,3-dioxolan-2-yl)ethanethioate] | > 20 | – | ≥ 10 | – | –
CC(C(=O)SCCNC(=O)CCNC(=O)[C@H](O)C(C)(C)CO)[C@@H](C)O (stereo partly drawn) [Compound 1244, (2R)-2,4-dihydroxy-N-{2-[(2-{[(3R)-3-hydroxy-2-methylbutanoyl]sulfanyl}ethyl)carbamoyl]ethyl}-3,3-dimethylbutanamide] | – | – | – | ≥ 10 | –
CC(C)=CC(=O)SCCNC(=O)CCNC(=O)[C@H](O)C(C)(C)CO [Compound 37, S-2-{3-[(R)-2,4-dihydroxy-3,3-dimethylbutyrylamino]propionylamino}ethyl 3-methyl-2-butenethioate] | – | – | ≥ 10 | – | –
CC(C)(CO)[C@@H](O)C(=O)NCCC(=O)NCCSC(=O)CC(O)C(=O)O (stereo partly shown) [Compound 39] | – | > 50 | – | ≥ 10 | –
CC(C)(CO)[C@@H](O)C(=O)NCCC(=O)NCCSC(=O)C1CCC(=O)N1 (stereo partly drawn) [Compound 1227, S-2-{3-[(R)-2,4-dihydroxy-3,3-dimethylbutyrylamino]propionylamino}ethyl 5-oxo-2-pyrrolidinecarbothioate] | – | – | ≥ 10 | – | inhibition at 10 µM (HepG2 cells): > 30%; activation at 10 µM [1, 3]: ≥ 10%
CCC(C)C(=O)CC(=O)SCCNC(=O)CCNC(=O)[C@H](O)C(C)(C)CO (stereo partly drawn) [Compound 1240, S-(2-(3-((R)-2,4-dihydroxy-3,3-dimethylbutanamido)propanamido)ethyl) 4-methyl-3-oxohexanethioate] | – | > 50 | ≥ 10 | ≥ 10 | –
CCC(=O)CC(=O)SCCNC(=O)CCNC(=O)[C@H](O)C(C)(C)CO [Compound 382, (2R)-2,4-dihydroxy-3,3-dimethyl-N-[2-([2-[(3-oxopentanoyl)sulfanyl]ethyl]carbamoyl)ethyl]butanamide] | – | – | – | ≥ 10 | –
